The text below walks through data of patent US20180021361A1, “COMBINATION DRUG TREATMENT FOR HEPATITIS C INFECTION” (JANSSEN PHARMACEUTICALS, INC., priority 2016, published 2018).

In one series the target is T1, OATP1B1 (Homo sapiens, UniProt Q9Y6L6).
T1 sequence (Q9Y6L6 1-691): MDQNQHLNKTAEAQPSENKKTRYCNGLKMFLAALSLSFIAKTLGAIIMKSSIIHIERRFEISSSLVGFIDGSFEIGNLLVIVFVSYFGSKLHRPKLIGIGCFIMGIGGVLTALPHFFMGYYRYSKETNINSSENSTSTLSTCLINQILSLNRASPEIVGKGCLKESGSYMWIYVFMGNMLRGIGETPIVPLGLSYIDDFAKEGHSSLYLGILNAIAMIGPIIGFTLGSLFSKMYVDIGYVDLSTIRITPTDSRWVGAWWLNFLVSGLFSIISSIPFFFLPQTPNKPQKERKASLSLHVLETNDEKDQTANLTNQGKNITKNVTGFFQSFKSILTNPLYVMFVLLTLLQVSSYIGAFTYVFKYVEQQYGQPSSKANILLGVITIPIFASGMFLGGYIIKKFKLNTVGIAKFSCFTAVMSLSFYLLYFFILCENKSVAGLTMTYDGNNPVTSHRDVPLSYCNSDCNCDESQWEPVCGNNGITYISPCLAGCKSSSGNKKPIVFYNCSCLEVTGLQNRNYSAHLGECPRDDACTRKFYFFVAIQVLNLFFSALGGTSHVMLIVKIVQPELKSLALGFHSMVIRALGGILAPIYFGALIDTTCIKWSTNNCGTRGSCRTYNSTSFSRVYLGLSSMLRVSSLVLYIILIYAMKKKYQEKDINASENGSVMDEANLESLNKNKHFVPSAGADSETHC
Particulars: uptake transporter; cited from earlier work.

Series [1] in a line: Phase-1 drug-drug interaction study, plasma PK in healthy volunteers. As to the method:
A drug-drug interaction study (DDI) study is a study designed to investigate whether a drug alters the pharmacokinetics of another drug or drugs or their metabolites.
Compound (III) Subjects received 800 mg of Compound (III) once daily from Days 1-3, Days 11-13, and Days 21-23. PK blood samples for determination of Compound (III) and metabolite concentrations were collected in reference to the Day 3, Day 13, and Day 23 doses.
Simeprevir—Subjects received 150 mg of Simeprevir (SMV) once daily from Days 4-23. PK blood samples for determination of SMV concentrations were collected in reference to the Day 10, Day 13, Day 20, and Day 23 doses.
Odalasvir—Subjects received a loading dose of 150 mg on Day 14, and 50 mg of Odalasvir once daily from Days 15-23. PK blood samples for determination of Odalasvir concentrations were collected in reference to the Day 20 and Day 23 doses.
Compound (III)—Subjects received 800 mg of Compound (III) once daily from Days 1-3, Days 11-13 and Days 21-23. PK blood samples for determination of Compound (III) and metabolite concentrations were collected in reference to the Day 3, Day 13, and Day 23 doses.
Simeprevir—Subjects receive 150 mg of SMV once daily from Days 4-23. PK blood samples for determination of SMV concentrations were collected in reference to the Day 20 and Day 23 doses.
Odalasvir—Subjects receive a loading dose of 150 mg on Day 4, and 50 mg of Odalasvir once daily from Days 5-23. PK blood samples for determination of Odalasvir concentrations were collected in reference to the Day 10, Day 13, Day 20, and Day 23 doses.
A primary objective was to evaluate the effect of multiple oral doses of Odalasvir (alone), Simeprevir (alone), and Odalasvir and Simeprevir on the multiple oral dose PK of Compound (III) (and certain metabolites thereof, such as the major metabolites in systemic circulation) in healthy volunteers. Other objectives were to evaluate the safety and tolerability of multiple oral doses of Compound (III) when administered alone and in combination with single and multiple oral doses of Odalasvir and/or Simeprevir in healthy volunteers; to determine the potential effect of Compound of Compound (III) and/or Odalasvir on the steady-state PK of Simeprevir in healthy volunteers; to determine the potential effect of Compound of Compound (III) and/or Simeprevir on the steady state PK of Odalasvir in healthy volunteers.
Various other PK parameters were estimated including: […], t1/2, Tmax, Tlast, CL/F, Vz/F, and λz.
Odalasvir: 150 mg loading dose; 50 mg for the remainder of the study period.

The target of the next series is P-gp (Homo sapiens, UniProt P08183). Particulars: efflux transporter; cited from earlier work.
P-gp, sequence (P08183 whole entry): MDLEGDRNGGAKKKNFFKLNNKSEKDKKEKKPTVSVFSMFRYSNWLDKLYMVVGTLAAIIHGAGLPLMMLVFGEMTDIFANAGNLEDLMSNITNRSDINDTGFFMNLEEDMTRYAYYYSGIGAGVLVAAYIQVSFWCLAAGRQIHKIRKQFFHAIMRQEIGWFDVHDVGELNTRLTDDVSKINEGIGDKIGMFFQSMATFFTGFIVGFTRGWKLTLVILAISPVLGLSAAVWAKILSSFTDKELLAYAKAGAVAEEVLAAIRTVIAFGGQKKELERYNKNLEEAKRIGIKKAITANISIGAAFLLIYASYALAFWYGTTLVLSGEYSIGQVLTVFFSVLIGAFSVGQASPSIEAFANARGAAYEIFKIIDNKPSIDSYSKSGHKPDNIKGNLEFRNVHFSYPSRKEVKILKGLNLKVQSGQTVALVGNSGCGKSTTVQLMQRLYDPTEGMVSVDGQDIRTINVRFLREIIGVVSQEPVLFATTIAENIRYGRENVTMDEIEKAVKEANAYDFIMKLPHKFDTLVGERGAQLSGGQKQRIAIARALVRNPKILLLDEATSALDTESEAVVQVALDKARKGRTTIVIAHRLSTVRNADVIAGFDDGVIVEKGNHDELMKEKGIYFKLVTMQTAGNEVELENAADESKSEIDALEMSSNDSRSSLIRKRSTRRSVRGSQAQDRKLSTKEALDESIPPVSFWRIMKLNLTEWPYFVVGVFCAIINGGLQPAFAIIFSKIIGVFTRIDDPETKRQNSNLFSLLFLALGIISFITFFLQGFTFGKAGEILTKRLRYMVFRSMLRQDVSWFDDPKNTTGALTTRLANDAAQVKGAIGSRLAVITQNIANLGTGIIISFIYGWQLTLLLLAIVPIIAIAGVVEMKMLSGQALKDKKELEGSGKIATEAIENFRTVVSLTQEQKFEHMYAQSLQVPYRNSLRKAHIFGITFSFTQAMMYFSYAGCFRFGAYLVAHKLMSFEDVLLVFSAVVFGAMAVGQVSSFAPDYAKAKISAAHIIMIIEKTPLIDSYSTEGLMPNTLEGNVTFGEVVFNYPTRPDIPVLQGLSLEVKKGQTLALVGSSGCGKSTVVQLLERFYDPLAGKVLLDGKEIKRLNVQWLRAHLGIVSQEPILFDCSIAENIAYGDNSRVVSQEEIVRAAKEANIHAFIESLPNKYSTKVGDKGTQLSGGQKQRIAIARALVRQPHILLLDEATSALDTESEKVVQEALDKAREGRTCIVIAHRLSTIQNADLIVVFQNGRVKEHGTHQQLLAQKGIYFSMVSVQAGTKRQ
The target in another series is T2, OATP1B3 (Homo sapiens, UniProt Q9NPD5).
T2 sequence (Q9NPD5 1-702): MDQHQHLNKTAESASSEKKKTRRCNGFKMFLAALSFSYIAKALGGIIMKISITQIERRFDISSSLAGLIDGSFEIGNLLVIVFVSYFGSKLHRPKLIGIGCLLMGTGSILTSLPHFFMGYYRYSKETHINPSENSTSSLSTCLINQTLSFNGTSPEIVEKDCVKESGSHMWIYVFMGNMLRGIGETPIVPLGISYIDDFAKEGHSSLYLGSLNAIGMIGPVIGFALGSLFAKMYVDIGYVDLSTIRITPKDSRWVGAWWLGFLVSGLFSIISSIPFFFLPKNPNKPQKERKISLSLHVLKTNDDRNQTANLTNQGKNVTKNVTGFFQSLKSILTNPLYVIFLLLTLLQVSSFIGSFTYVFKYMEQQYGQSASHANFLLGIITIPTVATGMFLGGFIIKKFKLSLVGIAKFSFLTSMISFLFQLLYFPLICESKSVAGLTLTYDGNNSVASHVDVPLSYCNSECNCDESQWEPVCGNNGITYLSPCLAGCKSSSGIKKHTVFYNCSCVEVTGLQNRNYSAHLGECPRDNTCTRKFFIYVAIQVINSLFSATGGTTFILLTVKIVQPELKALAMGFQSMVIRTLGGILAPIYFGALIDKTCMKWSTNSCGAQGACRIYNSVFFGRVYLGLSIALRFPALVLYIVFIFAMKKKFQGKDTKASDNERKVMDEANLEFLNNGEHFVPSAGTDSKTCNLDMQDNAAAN
Particulars: uptake transporter; cited from earlier work.

Entries after “also recorded” stand apart in the source; their conditions may differ.

Regarding `COC(=O)N[C@H](C(=O)N1[C@H](c2nc3cc(-c4cc5ccc4CCc4ccc(c(-c6ccc7[nH]c([C@@H]8C[C@@H]9CCCC[C@@H]9N8C(=O)[C@@H](NC(=O)OC)C(C)C)nc7c6)c4)CC5)ccc3[nH]2)C[C@@H]2CCCC[C@@H]21)C(C)C` [ODV, methyl [(2S)-1-[(2S,3aS,7aS)-2-[6-[11-[2-[(2S,3aS,7aS)-1-[(2S)-2-[(methoxycarbonyl)amino]-3-methylbutanoyl]octahydro-1H-indol-2-yl]-1H-benzimidazol-6-yl]tricyclo[8.2.2.2^4,7]hexadeca-1(12),4,6,10,13,15-hexaen-5-yl]-1H-benzimidazol-2-yl]octahydro-1H-indol-1-yl]-3-methyl-1-oxobutan-2-yl]carbamate], the “in vitro inhibition of OATP1B1” value at OATP1B1 is listed as “no inhibition”. In series [1] (DDI study results), the “exposure increase caused by SMV” value is listed as 1.6 × and the “exposure increase, effect of the three Compounds” value was 1.5 ×. In addition, the “increase of exposure with the combination of the three drugs” value in series [1] (human in vivo study) is given as 1.5 times. The “effect of Compound (III) on exposure / bioavailability” value in series [1] (human subjects) is “no apparent effect; also recorded: does not alter”. Moreover, the “in vitro inhibition of P-gp” value on P-gp is listed as “moderate inhibition”. Also, the “in vitro inhibition of OATP1B3” value at OATP1B3 is listed as “no inhibition”.

In the case of `CC(C)OC(=O)C(C)N[P@](=O)(OC[C@@]1(F)O[C@@H](n2ccc(=O)[nH]c2=O)[C@](C)(O)[C@@H]1O)Oc1ccccc1` (stereo in doubt) [Compound (III)], on OATP1B1, the “in vitro inhibition of OATP1B1” value was “no in vitro inhibition”. In addition, in series [1] (DDI study results), the “exposure increase caused by Odalasvir” value turned out to be 4 × and the “exposure increase caused by SMV” value turned out to be 3 ×. Further, the “increase of exposure with the combination of the three drugs” value in series [1] (both, human, in vivo) is 7-8 times. For the same compound, the “bioavailability of Compound (III) when SMV and ODV are co-administered, compared to Compound (III) alone” value in series [1] (human subjects) is on record as “approximately 8 fold”. The “in vitro inhibition of P-gp” value on P-gp is given as “no in vitro inhibition”. In addition, on OATP1B3, the “in vitro inhibition of OATP1B3” value is “no in vitro inhibition”.
